Source: publication PMC11641365, “Evaluation of In Vitro Biological Activity of Flavanone/Chromanone Derivatives: Molecular Analysis of Anticancer Mechanisms in Colorectal Cancer” (International Journal of Molecular Sciences, 2024)
Read-outs that look alike come from different tables or passages of the source.

What was measured:
Type in all cases: cell-based, human
[1] = system: HCT 116, SW620, LoVo, Caco-2, and HT-29 cancer cell lines; experiment: Alkaline comet assay (DNA damage), all cell lines; details: compound at IC50, 12 h; all five cell lines
From the text: Single-cell gel electrophoresis, also known as the comet assay, is a rapid and sensitive method for assessing DNA damage at the single-cell level. Cells are lysed and electrophoresed. Both single-strand and double-strand breaks are detected under alkaline conditions. The released DNA is denatured and moves in the agarose gel toward the anode during electrophoresis. The image, obtained after staining with the fluorescent dye 4′,6-diamidino-2-phenylindole (DAPI), resembles a “comet” with a distinct “head” (intact DNA) and “tail” (damaged DNA fragments). The length of the tail depends on the number and size of the broken DNA strands.
Cells (1 × 10^3) were seeded in 35 mm dishes and cultured in the medium for 24 h to attain the logarithmic growth phase. […] Subsequently, cells were trypsinized and centrifuged for 10 min at 100× g at 4 °C. A small amount of PBS and a 0.5% solution of low-melting-point agarose (LMP agarose) were added to the obtained cell pellet and placed on a glass slide covered with two layers of normal-melting-point agarose (NMP agarose). The slides were incubated for 24 h in a lysis buffer (2.5 M NaCl, 100 mM, Na2EDTA, 10 mM, Tris, 1% Triton X-100) to release DNA. […] Quantitative analysis of the DNA comet image of preparations stained with DAPI solution (2 μg/L) was performed using a camera connected to a fluorescence microscope. The comet DNA analysis was performed under a Nikon Eclipse fluorescence microscope (Nikon, Tokyo, Japan) equipped with a 4910 COHU video camera (Cohu, Inc., San Diego, CA, USA) and a computer with Lucia-Comet v. […] Each time, from each preparation, 100 randomly selected comets were counted. The extent of DNA damage is quantified by measuring the length of the comet tail and the amount of DNA it contains. The Lucia Comet software calculated the percentage of DNA damage based on measurements of color intensity and comet tail length. The intensity of fluorescence was determined by the software, which calculated a series of parameters characterizing the extent of DNA damage for each cell. […]

[2] = system: SW620; experiment: Autophagy induction, monodansylcadaverine (MDC) fluorescence; details: compound at IC50, 24 h, vs control
Procedure: (§1) Autophagy induction in cells treated with the tested drugs was determined by measuring Monodansylcadaverine (MDC; Sigma-Aldrich; St. Louis, MO, USA) fluorescence according to a modified method described by Vázquez. […] In the cell, MDC accumulates in lipid-rich cell membranes. It has been shown that MDC can be used as a dye for detecting autophagy, as it accumulates in autophagolysosomes as a result of interaction with membrane lipids.
(§2) Cells were seeded in black 96-well fluorometric microplates at a density of 10 × 10^3 cells/mL. […] Following compound incubation, the medium was removed, and the cell monolayers were washed twice with HBSS (140 mM NaCl, 5 mM KCl, 0.8 mM MgCl2, 1.8 mM CaCl2, 1 mM Na2HPO4, 10 mM HEPES, and 1% glucose). A solution of MDC at a final concentration of 50 μM was added to each well and incubated in a CO2 cell culture incubator at 37 °C for 15 min. After incubation with MDC, the probe was removed, and the cells were lysed with 50 μL of lysis buffer (10 mM TRIS-HCl; pH 8 containing 0.1% Triton X-100). After lysis, fluorescence was measured at an excitation wavelength of λex = 390 nm and an emission wavelength of λem = 460 nm using a Perkin-Elmer LS-5B spectrofluorometer (Waltham, MA, USA). In order to normalize the number of cells in individual samples, the amount of DNA was determined by adding 50 μL of EB (final concentration 0.2 mM) to each well after measuring the MCB fluorescence and measuring the EB fluorescence at an excitation wavelength of λex = 530 nm and an emission wavelength of λem = 590 nm. The results were calculated as the ratio of MDC fluorescence to EB fluorescence.

[3] = system: LoVo; experiment: as above; details: compound at IC50, 24 h, vs control
Procedure: as §1, §2

[4] = system: HT-29; experiment: MTT cell viability assay; details: for IC50: HT-29, 24 h incubation with compound, mean ± SD of three experiments, read-out: Cytotoxic effect, IC50; for IC50 difference, HT-29 vs other cell lines: HT-29, difference of IC50 values, read-out: IC50 in HT-29 higher compared to the other cell lines
Procedure: The cytotoxic activity of the 3-benzylideneflavanones, 3-benzylidenechromanones derivatives (compounds 1, 2, 3, 4, 5) and 5′-(3-methoxyphenyl)-2-phenyl-4′,5′-dihydro-4H-spiro[chromano-3,3′-pirazol]-4-one (compound 3a) was evaluated using the MTT assay (4,5-dimethylthiazol-2-yl)-2,5-diphenyltetrazoliumbromide), a colorimetric method that quantifies cell viability.
Cell viability was determined using the metabolic microplate spectrophotometric assay with Methylthiazolyl diphenyltetrazolium bromide (MTT) (Sigma-Aldrich; St. Louis, MO, USA). The MTT method belongs to metabolic tests for determining cell viability and consists of measuring the absorbance of a violet solution of formazan, a product of the reduction of a water-soluble yellow MTT by oxidoreductive enzymes (mainly mitochondrial succinate dehydrogenase) of living cells. The amount of the reaction product (water-insoluble formazan crystals) is proportional to the number of living and metabolically active cells in the sample. In the case of damaged or dead cells, formazan is formed in smaller amounts, or it is not formed.
The appropriate number of cells for a given cell line (6–8 × 10^3 cells/mL) were seeded onto colorless, sterile 96-well microplates (Nunc, Roskilde, Denmark) in the number appropriate for a given cell line. After 24 h of culture, various concentrations of the studied compounds (10^−7–10^−5 M) freshly prepared in DMSO (final concentration DMS < 0.1%) and diluted with complete culture medium were added and incubated in a CO2 incubator for 24 h. After this time, the medium was removed; the cell monolayer was washed twice with sterile PBS solution; and fresh culture medium was added to the microplate wells. After 48 h of cell culture, the MTT test was performed. A volume of 50 μL of tetrazolium salt solution (final concentration 0.05 mg/mL) was added to each microplate well. The microplate was placed for 3–4 h (depending on the cell line) in a CO2 incubator. After incubation, 100 μL of DMSO was added to the wells of the microplate to dissolve the purple formazan crystals formed in the living cell environment. The absorbance of the formazan solution, after gentle mixing, was read at a wavelength of λ = 580 nm and a reference wavelength of λ = 720 nm (Biotek Power Wave HT, Biotek Instruments, Winooski, VT, USA). The percentage of living cells was calculated by comparing the absorbance value of the tested samples with the absorbance value of the control (cells not treated with compounds). The absorbance of the control was taken as 100%.

Row | SMILES | Genotoxic properties (comet assay) [1] | Increase in MDC fluorescence intensity (autophagy) [2] | Increase in MDC fluorescence intensity (autophagy) [3] | IC50 ([4]; Homo sapiens, HT-29, 24 h) [µM] | IC50 difference, HT-29 vs other cell lines ([4]; Homo sapiens) [µM] | Change in MDC fluorescence intensity [2] | Decrease in MDC fluorescence intensity [3] [%] | IC50 [4] [µM] | Decrease in MDC fluorescence intensity [2] [%] | Change in MDC fluorescence intensity [3]
1 | O=C1/C(=C/c2ccccc2)COc2ccccc21 [Compound 1] | potent genotoxic properties | approximately 40% | approximately 20% | 21.1 ± 1.3 | ~10 | – | – | – | – | –
2 | COc1cccc(/C=C2/C(=O)c3ccccc3OC2c2ccccc2)c1 (stereo not drawn) [Compound 3] | potent genotoxic properties | – | – | ~115 | – | no significant changes | 20 | 117 ± 6.1 | – | –
3 | O=C1/C(=C/c2ccccc2)C(c2ccccc2)Oc2ccccc21 (stereo not drawn) [Compound 5] | potent genotoxic properties | – | – | 31.1 ± 1.4 | ~10 | – | – | – | 20 | No significant changes
